Measured values as given in PMC11998406 (BMC Chemistry, 2025).

Legend:
BChE = BChE (Equus caballus, UniProt P81908); test: Kinetic study of BChE inhibition; assay type: biochemical, horse; settings: 13s at 0, 5, 20, 40 µM; butyrylthiocholine iodide 187.5-3000 µM
[1] = test system: SH-SY5Y neuroblastoma cell line; test: Cell viability; assay type: cell-based; settings: up to 25 µM

BChE, sequence (P81908 whole entry): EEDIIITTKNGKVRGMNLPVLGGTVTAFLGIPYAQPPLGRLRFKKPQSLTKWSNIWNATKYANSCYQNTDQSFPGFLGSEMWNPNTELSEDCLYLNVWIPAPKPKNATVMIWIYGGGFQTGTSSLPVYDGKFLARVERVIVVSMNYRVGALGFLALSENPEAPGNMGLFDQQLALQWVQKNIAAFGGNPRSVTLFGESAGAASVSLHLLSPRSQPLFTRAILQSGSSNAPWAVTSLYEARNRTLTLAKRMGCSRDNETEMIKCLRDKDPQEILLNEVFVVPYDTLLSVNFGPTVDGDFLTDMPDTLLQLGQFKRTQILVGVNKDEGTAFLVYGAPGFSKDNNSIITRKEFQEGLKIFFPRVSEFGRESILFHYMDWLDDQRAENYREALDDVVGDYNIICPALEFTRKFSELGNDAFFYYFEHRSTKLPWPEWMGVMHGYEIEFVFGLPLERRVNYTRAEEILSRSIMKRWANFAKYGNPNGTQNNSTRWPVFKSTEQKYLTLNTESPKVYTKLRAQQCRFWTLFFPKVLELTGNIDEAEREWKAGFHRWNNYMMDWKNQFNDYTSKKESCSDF

## Cc1ccc(Cn2cc(COc3ccc(-c4nnc(-c5ccc([N+](=O)[O-])cc5)o4)cc3)nn2)cc1 [Compound 13s, 2-(4-((1-(4-Methylbenzyl)-1 H-1,2,3-triazol-4-yl)methoxy)phenyl)-5-(4-nitrophenyl)-1,3,4-oxadiazole]
BChE
  mechanism of BChE inhibition (Lineweaver-Burk): competitive inhibition pattern
[1]
  toxicity: no toxicity
